Measurements: patent US11365227B2, “Peptide and pharmaceutical compositions of same for use as an antimicrobial and in cancer treatment” (UNIVERSITAT DE VALÈNCIA, priority 2017, dated 2022)
Where a SMILES comes first, the peptide text is derived from it.

What was measured:
S. aureus = assay: Scanning electron microscopy of S. aureus cells treated with peptides; format: cell-based, Staphylococcus aureus subsp. aureus CECT 4013; conditions: 25 μg/mL, 1 h
Procedure: The cells were prepared in the same way as for the flow cytometry technique and the same aliquots and treatments were performed. The samples were incubated at 37° C. for 1 h. The bacteria were fixed with Karnosky (2.5% paraformaldehyde and 0.5 glutaraldehyde) for 2 h at 4° C. After washing (centrifuging and eliminating the supernatant) they were fixed with 2% osmium tetraoxide for another 2 h, washed again and filtered with a 0.2 μm filter. The cells were then dehydrated in graded ethanol series (30°, 50°, 70°, 90°, 100°) for 10 min in each gradation. To carry out the critical point drying, the ethanol was replaced with liquid CO2, the temperature was increased to accelerate evaporation and the pressure was lowered slowly to conserve the exact shape of the bacteria. Finally, shading with gold palladium was performed for 2 min observing the results in the equipment FEG-SEM HITACHI S4800 at 10 Kv.
Scanning electron microscopy provides high-resolution images used to view the damage caused by the peptides to the bacterial membrane. The cells of S. aureus CECT 4013 were treated with the peptides hBD-3, TcDef3-pep and PaSK at a concentration of 25 μg/mL, for 1 h, and analysed using scanning electron microscopy (FIG. 4). In cells without treatment the circular and uniform form typical of S. aureus was observed, with the intact membrane, while in treated cells various types of morphological alterations can be seen. […] With this treatment small circular structures are observed, smaller than the cells of S. aureus.

[1] = Cell viability MTS assay, cytotoxic effect; format: cell-based; conditions: mouse, HC-11 normal mammary epithelial cells, approximately 200 μM (700 μg/mL), 0.5% bovine foetal serum
Procedure: Cell viability was determined by the MTS method. The MDA-MB-231 cells cultured in plates with 96 wells at 37° C. in an atmosphere humidified with 10% CO2 to a density of 5×10^3 cells/well were incubated with different concentrations of the peptide PaSK for 24 h. Then 20 μL were added of the solution MTS/PMS (3-(4,5-dimethylthiazol-2-yl)-5-(3-carboxymethoxyfenyl)-2-(4-sulphophenyl)-2H-tetrazole/phenazine methosulphate) to each well and after incubating for 2 h in the dark the absorbance at 490 nm was read in a plate reader. The percentage reduction in number of cells was calculated according to the formula (1−E/C)×100, where E is the absorbance of the cells treated with the peptide and C is the absorbance of the samples of the control cells.
The cytotoxic effect of the peptide PaSK has been studied in two cell lines of triple-negative breast cancer cells, one human (MDA-MB-231) and one mouse (4T1), and a line of normal mouse mammary epithelial cells (HC-11). To this end, a cell viability MTS assay was performed, based on the use of a compound derived from tetrazolium that is reduced in live cells to form a soluble coloured product. […]

MDA-MB-231 cells = assay: Cell proliferation analysis by flow cytometry with Oregon Green; format: cell-based, human; conditions: 50 μM (200 μg/mL)
Procedure: A cell proliferation analysis was performed by flow cytometry for tumour cells marked with the fluorophore Oregon Green subsequently treated with a concentration of 50 μM (200 μg/mL) of the peptide PaSK or with H2O as control. This analysis allowed exploring the use of PaSK in a combined therapeutic approach. The combined use of therapeutic agents meant to inhibit tumour growth and maintenance and agents capable of stimulating the patient's immune response in the treatment of cancer is an alternative therapeutic approach to conventional approaches based only on cytotoxic agents for reducing the impact of the two main problems associated with the exclusive use of cytotoxic agents in cancer therapy: non-specific toxicity and the appearance of resistance.
The reagent Oregon Green is covalently bonded to free amine groups of cells, conferring on same a homogeneous fluorescence that is distributed among the daughter cells in each cell division. As the fluorescence intensity of the cells is approximately halved with each cell division, the final fluorescence intensity after treatment with the peptide and in non-treated control cells compared to the initial fluorescence intensity of the cells provides information on how many cell division cycles have occurred in each case.

MDA-MB-231 tumour cells = assay: Scanning and transmission electron microscopy of tumour cells; format: cell-based, human; conditions: 100 μg/mL, 72 h
Procedure: The MDA-MB-231 cells, control or treated with 100 μg/mL of PaSK, were prepared as indicated in the section “Preparation of the samples”. The cells were fixed with Karnosky (2.5% paraformaldehyde and 0.5% glutaraldehyde) for 2 h at 4° C. After washing (centrifuging and eliminating the supernatant) they were fixed with 2% osmium tetraoxide for another 2 h, washed again and filtered with a 0.2 μm filter. The cells were then dehydrated in graded ethanol series (30°, 50°, 70°, 90°, 100°) for 10 min in each gradation. To carry out the critical point drying, the ethanol was replaced with liquid CO2, the temperature was increased to accelerate evaporation and the pressure was lowered slowly to conserve the exact shape of the cells. Finally, shading with gold palladium was performed for 2 min observing the results in the equipment FEG-SEM HITACHI S4800 at 10 Kv. […]
Both scanning electron microscopy and transmission electron microscopy provide high resolution images, which were used to view the morphological and ultrastructural changes caused by the peptide PaSK in the membrane and inside of tumour cells. The MDA-MB-231 cells were treated with the peptide PaSK at a concentration of 100 μg/mL for 72 h, and were analysed using scanning electron microscopy (FIG. 14) and transmission electron microscopy (FIG. 15). […]

CC[C@H](C)[C@H](NC(=O)[C@H](CCCNC(=N)N)NC(=O)[C@H](CCCNC(=N)N)NC(=O)[C@H](CCCCN)NC(=O)[C@H](CC(N)=O)NC(=O)[C@H](CS)NC(=O)[C@H](Cc1ccc(O)cc1)NC(=O)CNC(=O)CNC(=O)[C@H](CCCNC(=N)N)NC(=O)[C@H](CCCCN)NC(=O)[C@H](CCCNC(=N)N)NC(=O)[C@H](CCCCN)NC(=O)[C@H](CC(C)C)NC(=O)[C@H](CC(C)C)NC(=O)[C@H](CS)NC(=O)[C@H](Cc1c[nH]cn1)NC(=O)[C@H](C)NC(=O)[C@H](C)NC(=O)[C@H](CS)NC(=O)[C@H](C)NC(=O)[C@H](C)NC(=O)[C@H](Cc1c[nH]cn1)NC(=O)[C@H](CC(N)=O)NC(=O)[C@@H](NC(=O)[C@@H](N)CCCCN)C(C)C)C(=O)N[C@@H](CS)C(=O)N[C@H](C(=O)N[C@@H](CS)C(=O)N[C@@H](CCCNC(=N)N)C(=O)N[C@@H](CC(N)=O)C(=O)O)C(C)C [PaSK] (H-KVNHAACAAHCLLKRKRGGYCNKRRICVCRN-OH; N-terminus and C-terminus assumed)
biofilm formation, scanning electron microscopy (S. aureus): biofilm produced
morphological alterations, scanning electron microscopy (S. aureus): complete cell disintegration
mortality at 24 h, 200 μM [1]: ~50%
cell proliferation (Oregon Green fluorescence intensity) (MDA-MB-231 cells): inhibits proliferation
morphological and ultrastructural changes (MDA-MB-231 tumour cells): significant morphological changes
